Assay results as given in ChEMBL document CHEMBL3621077, “Synthesis of hybrid anticancer agents based on kinase and histone deacetylase inhibitors” (Medchemcomm, 2014).
pIC50: −log10 of the molar value. The source made the active and inactive calls. No cut-off for these calls is given here.

Tests used:
[1] = biological target: Mast/stem cell growth factor receptor Kit (Homo sapiens) (UniProt P10721); assay: Inhibition of c-kit (unknown origin) at 10 uM
[2] = biological target: Platelet-derived growth factor receptor beta (Homo sapiens, UniProt P09619); assay: Inhibition of PDGFRb (unknown origin); settings: read-out: IC50
Platelet-derived growth factor receptor beta, sequence (P09619 whole entry): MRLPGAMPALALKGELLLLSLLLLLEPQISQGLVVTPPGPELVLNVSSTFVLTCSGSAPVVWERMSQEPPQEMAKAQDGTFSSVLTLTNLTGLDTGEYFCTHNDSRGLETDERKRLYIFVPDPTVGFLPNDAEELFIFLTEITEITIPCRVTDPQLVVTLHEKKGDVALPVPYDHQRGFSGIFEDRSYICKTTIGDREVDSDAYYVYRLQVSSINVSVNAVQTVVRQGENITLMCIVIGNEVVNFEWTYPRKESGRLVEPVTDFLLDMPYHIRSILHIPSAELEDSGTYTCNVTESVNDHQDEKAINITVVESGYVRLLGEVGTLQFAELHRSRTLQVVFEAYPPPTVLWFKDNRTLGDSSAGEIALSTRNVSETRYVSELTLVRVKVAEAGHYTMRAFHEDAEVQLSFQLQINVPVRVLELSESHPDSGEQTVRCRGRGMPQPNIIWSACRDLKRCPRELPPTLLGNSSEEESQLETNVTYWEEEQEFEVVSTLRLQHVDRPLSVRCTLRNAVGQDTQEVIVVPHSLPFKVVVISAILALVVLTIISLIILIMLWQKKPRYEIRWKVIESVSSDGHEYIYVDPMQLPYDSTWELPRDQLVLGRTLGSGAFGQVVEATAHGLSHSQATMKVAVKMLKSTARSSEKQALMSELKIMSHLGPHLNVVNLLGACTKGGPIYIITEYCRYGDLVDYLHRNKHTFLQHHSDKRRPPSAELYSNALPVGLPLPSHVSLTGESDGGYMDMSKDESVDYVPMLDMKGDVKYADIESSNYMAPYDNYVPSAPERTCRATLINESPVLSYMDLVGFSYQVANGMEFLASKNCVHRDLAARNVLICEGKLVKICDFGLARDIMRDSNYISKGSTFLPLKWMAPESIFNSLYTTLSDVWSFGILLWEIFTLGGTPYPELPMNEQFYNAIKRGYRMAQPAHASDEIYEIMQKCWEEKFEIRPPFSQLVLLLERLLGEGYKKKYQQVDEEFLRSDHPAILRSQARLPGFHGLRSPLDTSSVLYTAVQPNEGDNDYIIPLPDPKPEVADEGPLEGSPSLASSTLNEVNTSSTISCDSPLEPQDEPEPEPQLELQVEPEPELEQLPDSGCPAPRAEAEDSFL

Histone deacetylase = type: cell-based, Homo sapiens; settings: hela
Histone deacetylase 2 = Histone deacetylase 2 (Homo sapiens, UniProt Q92769)
Histone deacetylase 2, sequence (Q92769 whole entry): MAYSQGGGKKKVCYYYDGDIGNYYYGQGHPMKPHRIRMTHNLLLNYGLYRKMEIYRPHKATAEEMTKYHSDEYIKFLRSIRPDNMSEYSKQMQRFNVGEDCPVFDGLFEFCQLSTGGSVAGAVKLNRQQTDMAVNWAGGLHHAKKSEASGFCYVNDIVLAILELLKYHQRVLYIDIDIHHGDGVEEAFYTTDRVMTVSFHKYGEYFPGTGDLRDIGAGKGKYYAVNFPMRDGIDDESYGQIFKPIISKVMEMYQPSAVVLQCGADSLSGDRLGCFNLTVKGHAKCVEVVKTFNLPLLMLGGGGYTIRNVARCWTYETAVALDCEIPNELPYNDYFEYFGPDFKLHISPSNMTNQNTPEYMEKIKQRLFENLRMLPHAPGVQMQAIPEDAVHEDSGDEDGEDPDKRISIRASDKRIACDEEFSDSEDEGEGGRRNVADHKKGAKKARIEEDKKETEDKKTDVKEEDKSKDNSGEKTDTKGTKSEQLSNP

Histone deacetylase 3 = Histone deacetylase 3 (Homo sapiens, UniProt O15379); assay: Inhibition of HDAC3 (unknown origin)
Histone deacetylase 3, sequence (O15379 whole entry): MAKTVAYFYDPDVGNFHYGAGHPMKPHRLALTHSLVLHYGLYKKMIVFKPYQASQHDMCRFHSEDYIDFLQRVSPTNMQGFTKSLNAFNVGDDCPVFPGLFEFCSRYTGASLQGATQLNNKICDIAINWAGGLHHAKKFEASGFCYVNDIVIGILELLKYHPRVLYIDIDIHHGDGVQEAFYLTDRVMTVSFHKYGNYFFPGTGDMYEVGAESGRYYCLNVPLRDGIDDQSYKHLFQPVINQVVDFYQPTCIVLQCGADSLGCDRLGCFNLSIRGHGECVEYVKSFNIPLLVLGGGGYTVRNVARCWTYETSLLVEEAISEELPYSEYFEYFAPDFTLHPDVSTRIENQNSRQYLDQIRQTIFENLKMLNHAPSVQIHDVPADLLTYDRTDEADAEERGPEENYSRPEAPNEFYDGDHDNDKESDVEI

Histone deacetylase 5 = Histone deacetylase 5 (Homo sapiens, UniProt Q9UQL6); assay: Inhibition of HDAC5 (unknown origin); settings: read-out: IC50
Histone deacetylase 5, sequence (Q9UQL6 whole entry): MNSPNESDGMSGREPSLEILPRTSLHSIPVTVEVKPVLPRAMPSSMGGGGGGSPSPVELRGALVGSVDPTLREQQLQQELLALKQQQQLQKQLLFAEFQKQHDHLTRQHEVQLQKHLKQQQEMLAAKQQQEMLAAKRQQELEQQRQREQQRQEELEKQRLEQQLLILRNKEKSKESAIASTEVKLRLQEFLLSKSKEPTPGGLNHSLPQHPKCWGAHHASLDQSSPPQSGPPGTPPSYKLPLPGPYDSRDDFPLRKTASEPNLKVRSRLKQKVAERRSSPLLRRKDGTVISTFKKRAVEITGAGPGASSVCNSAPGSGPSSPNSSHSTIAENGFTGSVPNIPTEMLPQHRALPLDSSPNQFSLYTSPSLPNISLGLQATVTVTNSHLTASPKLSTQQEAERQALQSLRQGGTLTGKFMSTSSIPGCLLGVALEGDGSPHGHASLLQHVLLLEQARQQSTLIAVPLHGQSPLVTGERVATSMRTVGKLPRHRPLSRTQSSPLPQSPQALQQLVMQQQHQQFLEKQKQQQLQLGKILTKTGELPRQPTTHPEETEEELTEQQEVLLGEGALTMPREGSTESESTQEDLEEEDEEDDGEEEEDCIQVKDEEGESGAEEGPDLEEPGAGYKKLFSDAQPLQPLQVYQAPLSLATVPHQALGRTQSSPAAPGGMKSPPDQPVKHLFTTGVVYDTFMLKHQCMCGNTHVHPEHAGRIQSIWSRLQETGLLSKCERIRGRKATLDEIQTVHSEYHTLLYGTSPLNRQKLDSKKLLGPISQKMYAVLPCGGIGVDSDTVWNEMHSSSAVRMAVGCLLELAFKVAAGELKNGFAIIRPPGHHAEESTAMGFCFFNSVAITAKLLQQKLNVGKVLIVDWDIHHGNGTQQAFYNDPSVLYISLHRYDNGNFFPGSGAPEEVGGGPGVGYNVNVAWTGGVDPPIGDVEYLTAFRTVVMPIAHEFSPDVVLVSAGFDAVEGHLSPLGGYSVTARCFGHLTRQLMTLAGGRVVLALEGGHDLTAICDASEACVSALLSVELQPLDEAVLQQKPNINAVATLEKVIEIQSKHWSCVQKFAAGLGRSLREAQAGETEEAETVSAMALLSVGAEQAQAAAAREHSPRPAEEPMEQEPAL

Histone deacetylase 7 = biological target: T1, Histone deacetylase 7 (Homo sapiens, UniProt Q8WUI4); assay: Inhibition of HDAC7 (unknown origin)
T1 sequence (Q8WUI4 whole entry): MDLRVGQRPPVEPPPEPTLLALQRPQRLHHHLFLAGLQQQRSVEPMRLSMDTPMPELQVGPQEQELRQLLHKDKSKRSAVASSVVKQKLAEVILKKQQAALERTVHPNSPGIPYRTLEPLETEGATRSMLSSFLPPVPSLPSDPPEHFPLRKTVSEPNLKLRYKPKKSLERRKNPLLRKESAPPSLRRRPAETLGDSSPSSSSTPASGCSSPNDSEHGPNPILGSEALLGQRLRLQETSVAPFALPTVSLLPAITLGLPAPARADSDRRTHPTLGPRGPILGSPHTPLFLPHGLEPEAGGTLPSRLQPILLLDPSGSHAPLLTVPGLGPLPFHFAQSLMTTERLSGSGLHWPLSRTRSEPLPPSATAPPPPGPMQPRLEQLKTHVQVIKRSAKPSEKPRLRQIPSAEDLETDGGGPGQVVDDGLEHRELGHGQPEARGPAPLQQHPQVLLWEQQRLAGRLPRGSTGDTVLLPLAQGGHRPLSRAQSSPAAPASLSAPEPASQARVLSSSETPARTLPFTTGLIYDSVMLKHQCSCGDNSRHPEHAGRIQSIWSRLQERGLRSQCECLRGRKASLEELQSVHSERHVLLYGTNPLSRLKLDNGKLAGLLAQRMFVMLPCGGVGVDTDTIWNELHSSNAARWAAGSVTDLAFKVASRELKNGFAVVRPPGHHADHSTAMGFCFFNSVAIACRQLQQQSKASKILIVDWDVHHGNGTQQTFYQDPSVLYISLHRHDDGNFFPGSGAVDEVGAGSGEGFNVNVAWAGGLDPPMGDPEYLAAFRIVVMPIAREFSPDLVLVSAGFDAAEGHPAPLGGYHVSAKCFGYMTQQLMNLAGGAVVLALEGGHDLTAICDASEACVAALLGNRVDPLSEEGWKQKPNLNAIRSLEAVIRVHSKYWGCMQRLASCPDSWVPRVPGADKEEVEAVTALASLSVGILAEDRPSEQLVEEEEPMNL

Histone deacetylase 8 = biological target: T2, Histone deacetylase 8 (Homo sapiens, UniProt Q9BY41); assay: Inhibition of HDAC8 (unknown origin); settings: read-out: IC50
T2 sequence (Q9BY41 whole entry): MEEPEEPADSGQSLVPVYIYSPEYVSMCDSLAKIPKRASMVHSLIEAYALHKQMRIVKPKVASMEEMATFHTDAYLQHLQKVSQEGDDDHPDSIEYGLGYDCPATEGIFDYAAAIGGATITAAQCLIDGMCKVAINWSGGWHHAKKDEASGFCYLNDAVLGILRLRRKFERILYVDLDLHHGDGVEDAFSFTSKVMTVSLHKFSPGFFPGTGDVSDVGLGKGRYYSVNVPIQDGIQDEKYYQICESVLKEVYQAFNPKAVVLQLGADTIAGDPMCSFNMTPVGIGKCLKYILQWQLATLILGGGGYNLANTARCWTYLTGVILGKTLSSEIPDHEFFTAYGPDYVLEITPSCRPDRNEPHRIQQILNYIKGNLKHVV

Xenopus laevis [3] = species on record: Xenopus laevis; assay: Inhibition of angiogenesis in Xenopus laevis embryo heart assessed as decrease in Egfl7 mRNA level at 10 to 100 uM at stage 9 incubated for 72 hrs until stage 38 measured by WISH method; type: functional, organism-based
Xenopus laevis [4] = species on record: Xenopus laevis; assay: Inhibition of angiogenesis in Xenopus laevis embryo heart assessed as effect on Egfl7 expression in intersomitic vessels at 100 uM at stage 9 incubated for 72 hrs until stage 38 measured by WISH method; type: functional, organism-based; settings: Intersomitic vessel
Xenopus laevis [5] = species on record: Xenopus laevis; assay: Inhibition of angiogenesis in Xenopus laevis embryo heart assessed as reduction in tube formation at 100 uM at stage 9 incubated for 72 hrs until stage 38 measured by WISH method; type: functional, organism-based
MDA-MB-231 = assay: Cytotoxicity against human MDA-MB-231 cells assessed as reduction of cell viability at 200 uM after 72 hrs by MTT assay relative to control; type: functional
CCRF-CEM = assay: Cytotoxicity against human CCRF-CEM cells; type: functional
HL-60(TB) = assay: Cytotoxicity against human HL-60(TB) cells; type: functional
SR = assay: Cytotoxicity against human SR cells; type: functional
HOP-92 = assay: Cytotoxicity against human HOP92 cells; type: functional
COLO 205 = assay: Cytotoxicity against human COLO205 cells; type: functional
HCT-116 = assay: Cytotoxicity against human HCT116 cells; type: functional
HCT-15 = assay: Cytotoxicity against human HCT15 cells; type: functional
SF-268 = assay: Cytotoxicity against human SF268 cells; type: functional
SNB-19 = assay: Cytotoxicity against human SNB19 cells; type: functional
LOX IMVI = assay: Cytotoxicity against human LOXIMVI cells; type: functional
M14 = assay: Cytotoxicity against human M14 cells; type: functional
MDA-MB-435 = assay: Cytotoxicity against human MDA-MB-435 cells; type: functional
SK-MEL-2 = assay: Cytotoxicity against human SK-MEL-2 cells; type: functional
SK-MEL-5 = assay: Cytotoxicity against human SK-MEL-5 cells; type: functional
UACC-257 = assay: Cytotoxicity against human UACC257 cells; type: functional
UACC-62 = assay: Cytotoxicity against human UACC62 cells; type: functional
OVCAR-3 = assay: Cytotoxicity against human OVCAR3 cells; type: functional
OVCAR-4 = assay: Cytotoxicity against human OVCAR4 cells; type: functional
OVCAR-5 = assay: Cytotoxicity against human OVCAR5 cells; type: functional
OVCAR-8 = assay: Cytotoxicity against human OVCAR8 cells; type: functional
786-0 = assay: Cytotoxicity against human 786-0 cells; type: functional
ACHN = assay: Cytotoxicity against human ACHN cells; type: functional
SN12C = assay: Cytotoxicity against human SN12C cells; type: functional
UO-31 = assay: Cytotoxicity against human UO31 cells; type: functional
BT-549 = assay: Cytotoxicity against human BT549 cells; type: functional
T47D = assay: Cytotoxicity against human T47D cells; type: functional
MDA-MB-468 = assay: Cytotoxicity against human MDA-MB-468 cells; type: functional
Xenopus laevis [6] = species on record: Xenopus laevis; settings: at 10 to 100 µM

Mast/stem cell growth factor receptor Kit (Homo sapiens), sequence (P10721 whole entry): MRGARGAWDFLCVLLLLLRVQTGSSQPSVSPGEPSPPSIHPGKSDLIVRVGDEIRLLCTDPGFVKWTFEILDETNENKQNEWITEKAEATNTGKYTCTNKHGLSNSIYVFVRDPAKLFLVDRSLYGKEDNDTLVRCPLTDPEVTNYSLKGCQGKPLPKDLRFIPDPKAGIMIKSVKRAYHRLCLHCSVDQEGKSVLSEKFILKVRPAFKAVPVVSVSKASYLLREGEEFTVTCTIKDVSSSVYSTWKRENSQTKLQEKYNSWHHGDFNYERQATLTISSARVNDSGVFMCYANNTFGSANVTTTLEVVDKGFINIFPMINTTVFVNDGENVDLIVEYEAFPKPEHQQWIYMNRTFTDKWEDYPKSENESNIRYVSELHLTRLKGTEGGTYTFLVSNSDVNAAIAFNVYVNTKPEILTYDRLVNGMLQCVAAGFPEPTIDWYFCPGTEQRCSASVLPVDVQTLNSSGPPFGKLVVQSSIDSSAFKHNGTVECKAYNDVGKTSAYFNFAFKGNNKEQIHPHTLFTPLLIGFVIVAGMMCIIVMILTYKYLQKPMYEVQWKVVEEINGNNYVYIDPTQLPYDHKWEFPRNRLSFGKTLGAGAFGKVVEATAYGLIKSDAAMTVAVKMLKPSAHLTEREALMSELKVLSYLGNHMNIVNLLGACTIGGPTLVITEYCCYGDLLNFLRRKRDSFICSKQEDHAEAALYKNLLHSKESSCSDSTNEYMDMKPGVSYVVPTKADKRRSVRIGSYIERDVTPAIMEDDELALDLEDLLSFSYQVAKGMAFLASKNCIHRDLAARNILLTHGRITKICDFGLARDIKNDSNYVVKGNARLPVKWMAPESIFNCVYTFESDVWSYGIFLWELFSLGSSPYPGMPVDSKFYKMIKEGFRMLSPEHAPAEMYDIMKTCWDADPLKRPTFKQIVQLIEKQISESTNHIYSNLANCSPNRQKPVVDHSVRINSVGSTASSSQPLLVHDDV

## O=C(CCCCCCC(=O)Nc1ccc2c(c1)/C(=C/c1ccc[nH]1)C(=O)N2)NO
[1]
  inhibition: inactive
[2]
  pIC50: 6.73
Histone deacetylase
  IC50: 0.117 µM
Histone deacetylase 2
  pIC50: 8.95
Histone deacetylase 3
  pIC50: 9.17
Histone deacetylase 5
  pIC50: 6.07
Histone deacetylase 7
  IC50: Not Active
Histone deacetylase 8
  pIC50: 7.22
Xenopus laevis [3]
  inhibition: Active
Xenopus laevis [4]
  inhibition: inactive
Xenopus laevis [5]
  Activity: inactive
MDA-MB-231
  Activity: 30%
CCRF-CEM
  GI50: 0.102 µM
HL-60(TB)
  GI50: 0.477 µM
SR
  GI50: 0.296 µM
HOP-92
  GI50: 0.412 µM
COLO 205
  GI50: 0.248 µM
HCT-116
  GI50: 0.238 µM
HCT-15
  GI50: 4.59 µM
SF-268
  GI50: 1.19 µM
SNB-19
  GI50: 0.644 µM
LOX IMVI
  GI50: 0.565 µM
M14
  GI50: 0.489 µM
MDA-MB-435
  GI50: 0.341 µM
SK-MEL-2
  GI50: 0.989 µM
SK-MEL-5
  GI50: 0.243 µM
UACC-257
  GI50: 0.37 µM
UACC-62
  GI50: 0.301 µM
OVCAR-3
  GI50: 3.6 µM
OVCAR-4
  GI50: 1.27 µM
OVCAR-5
  GI50: 1.12 µM
OVCAR-8
  GI50: 0.499 µM
786-0
  GI50: 2.4 µM
ACHN
  GI50: 1.15 µM
SN12C
  GI50: 2.19 µM
UO-31
  GI50: 0.775 µM
BT-549
  GI50: 1.95 µM
T47D
  GI50: 0.045 µM
MDA-MB-468
  GI50: 0.194 µM
Xenopus laevis [6]
  inhibition: Active
